From US20260297060A1, “COMPOUNDS FOR THE DEGRADATION OF MUTANT BRAF” (C4 THERAPEUTICS, INC., priority 2023, published 2026)
Where two headings read alike, the source gives them in different places.

Assays:
[1] = Example 9 pharmacokinetics assay for efficacy study Part I and II (plasma, liver); format: in vivo, BALB/c nude mice; conditions: mouse, po, 10 mg/kg, p.o., BID × 14 days, 6 h following treatment, ± SEM
Description: For efficacy study Part I, agents were tested in the A375 human melanoma xenografts. Compound 218 and Compound 157 were administered to BALB/c nude mice bearing A375 xenografts from day 0 and dosed twice a day (BID) for 14 days. Compound 218 and Compound 157 were dosed at 10 mg/kg via p.o.. Dabrafenib was administered from day 1 daily (QD) for 14 days and dosed at 100 mg/kg via p.o..
For efficacy study Part II, agents were tested in the A375 human melanoma xenografts model. Compound 133, Compound 144 and Compound 198 were administered to BALB/c nude mice bearing A375 xenografts from day 0 and dosed twice a day (BID) for 14 days. Compound 133, Compound 144 and Compound 198 were dosed at 10 mg/kg via p.o..
(§1) The plasma samples were collected at predetermined time points for PK analysis. The mice were euthanized at predetermined time points post the treatment. The blood samples were collected into the 1.5 mL Eppendorf tubes containing 15 μL of 0.5 M EDTA-K2. And then the anticoagulant blood samples were centrifuged at 2,500 g at 4° C. for 15 minutes. The plasma samples were separated into 2 aliquots. The 1st was used for PK analysis, and the 2nd served as backup. The samples were stored at −80° C. before bioanalysis.
(§2) Liver samples were collected at predetermined time points for PK analysis. The left lobe of the liver was dissected out and split into 2 parts. The 1st part was used for PK analysis and the 2nd part served as the backup for the study. The samples were transferred into pre-labeled tubes and quickly froze in liquid nitrogen within 2 minutes after dissection. The samples were stored at −80° C. before bioanalysis.
The harvested plasma and liver samples were processed for pharmacokinetics analysis by LC-MS/MS with a concentration range of 1.00-1,000 ng/mL for Dabrafenib in plasma and liver homogenate, 10.0-10,000 ng/mL for Compound 218, Compound 157, Compound 133, Compound 144 and Compound 198 in plasma and liver homogenate.

[2] = Example 8 pharmacokinetics assay for PKPD study (plasma, tumor, liver); format: in vivo, BALB/c nude mice; conditions: mouse, po, 10 mg/kg, p.o., single dose
Description: For the PK and PD study, agents were administered to BALB/c nude mice bearing A375 human melanoma xenografts tumors. encorafenib, Compound 8, Compound 26, Compound 38, and Compound 39 were dosed p.o. once on day 1. Encorafenib was dosed at 35 mg/kg, Compound 8, Compound 26, Compound 38, and Compound 39 were dosed at 10 mg/kg. This study was non-GLP.
as §1, with “analysis. For non-termination plasma collection, blood samples were collected into the 1.5 mL Eppendorf tubes containing 3 μL of 0.5 M EDTA-K2. For termination plasma collection, the” for “analysis. The”, “the treatment and the” for “the treatment. The”
The tumor samples were collected at predetermined time points for PK and WB analysis. The tumor was dissected out and split into 3 parts. The 1st part was used for PK analysis, the 2nd part was used for WB analysis and the last one served as backup for study. The samples were transferred into pre-labeled tubes and quickly froze in liquid nitrogen within 2 minutes after dissection. The samples were stored at −80° C. before bioanalysis.
as §2
The harvested plasma and liver samples were processed for pharmacokinetics analysis by LC-MS/MS with a concentration range of 0.200~200 ng/mL for encorafenib in plasma and liver homogenate, and 0.100-100 ng/ml in tumor homogenate, 1.00-1000 ng/mL for Compound 8 in plasma and 0.500~500 ng/ml in tumor and liver homogenate, 50.0~50,000 ng/mL for Compound 26 and Compound 38 in plasma, 5.0~5000 ng/ml in liver and 2.00~2000 ng/ml in tumor homogenate, 1.00-1000 ng/mL for Compound 39 in plasma and 0.500~500 ng/mL in liver and tumor homogenate.

[3] = liver, read-out: Mean Concentration in Liver
[4] = plasma, read-out: Mean Concentration in Plasma
[5] = liver, read-out: Concentration in Liver (mean ± SEM)
[6] = plasma, read-out: Concentration in Plasma (mean ± SEM)
[7] = tumor, read-out: Concentration in Tumor (mean ± SEM)

| SMILES | concentration at 6 h [1, 3] | concentration at 6 h [1, 4] | other results |
| --- | --- | --- | --- |
| CCN(C)S(=O)(=O)Nc1ccc(F)c(Oc2ccc3ncc(OC4CC5(CCN(C6CCC(c7cc8c(cc7F)c(N7CCC(=O)NC7=O)nn8C)CC6)CC5)C4)nc3c2)c1C#N (single isomer, unassigned) [Compound 218, 7-[2-cyano-3-[[ethyl(methyl)sulfamoyl]amino]-6-fluoro-phenoxy]-2-[[7-[4-[3-(2,4-dioxohexahydropyrimidin-1-yl)-5-fluoro-1-methyl-indazol-6-yl]cyclohexyl]-7-azaspiro[3.5]nonan-2-yl]oxy]quinoxaline] | 5640 ± 588 ng/g | 2.27 ± 0.201 µg/mL | – |
| CCN(C)S(=O)(=O)Nc1ccc(F)c(Oc2ccc3ncn([C@H]4COC5(CCN(C6CC7(C6)CN(c6cc8c(cc6F)c(N6CCC(=O)NC6=O)nn8C)C7)CC5)C4)c(=O)c3c2)c1C#N [Compound 26, (3R)-3-[6-[2-cyano-3-[[ethyl(methyl)sulfamoyl]amino]-6-fluoro-phenoxy]-4-oxo-quinazolin-3-yl]-8-[2-[3-(2,4-dioxohexahydropyrimidin-1-yl)-5-fluoro-1-methyl-indazol-6-yl]-2-azaspiro[3.3]heptan-6-yl]-1-oxa-8-azaspiro[4.5]decane] | – | – | concentration at 6 h [2, 5]: 11800 ± 551 ng/g; concentration at 12 h [2, 5]: 3250 ± 601 ng/g; concentration at 1 h [2, 6]: 29.1 ± 0.733 µg/mL; concentration at 6 h [2, 6]: 20.8 ± 2.93 µg/mL; concentration at 12 h [2, 6]: 4.6 ± 1.14 µg/mL; concentration at 24 h [2, 6]: 0.162 ± 0.0153 µg/mL; concentration at 1 h [2, 7]: 1900 ± 320 ng/g; concentration at 6 h [2, 7]: 3770 ± 478 ng/g; concentration at 12 h [2, 7]: 1400 ± 226 ng/g; concentration at 24 h [2, 7]: 64.9 ± 19.9 ng/g |
| Cn1nc(N2CCC(=O)NC2=O)c2cc(F)c(N3CC4(CC(N5CCC6(CC5)C[C@@H](n5cnc7ccc(Oc8c(F)ccc(NS(=O)(=O)N9CC[C@@H](F)C9)c8C#N)cc7c5=O)CO6)C4)C3)cc21 [Compound 133, (3R)-N-[2-cyano-3-[3-[(3R)-8-[2-[3-(2,4-dioxohexahydropyrimidin-1-yl)-5-fluoro-1-methyl-indazol-6-yl]-2-azaspiro[3.3]heptan-6-yl]-1-oxa-8-azaspiro[4.5]decan-3-yl]-4-oxo-quinazolin-6-yl]oxy-4-fluoro-phenyl]-3-fluoro-pyrrolidine-1-sulfonamide] | 1910 ± 169 ng/g | 5.07 ± 0.27 µg/mL | – |
| CO[C@@H]1CCN(S(=O)(=O)Nc2ccc(F)c(Oc3ccc4ncn([C@H]5COC6(CCN(C7CC8(C7)CN(c7cc9c(cc7F)c(N7CCC(=O)NC7=O)nn9C)C8)CC6)C5)c(=O)c4c3)c2C#N)C1 [Compound 144, (3R)-N-[2-cyano-3-[3-[(3R)-8-[2-[3-(2,4-dioxohexahydropyrimidin-1-yl)-5-fluoro-1-methyl-indazol-6-yl]-2-azaspiro[3.3]heptan-6-yl]-1-oxa-8-azaspiro[4.5]decan-3-yl]-4-oxo-quinazolin-6-yl]oxy-4-fluoro-phenyl]-3-methoxy-pyrrolidine-1-sulfonamide] | 2470 ± 252 ng/g | 14.7 ± 2.22 µg/mL | – |
| CO[C@H]1CCN(S(=O)(=O)Nc2ccc(F)c(Oc3ccc4ncn([C@H]5COC6(CCN(C7CC8(C7)CN(c7cc9c(cc7F)c(N7CCC(=O)NC7=O)nn9C)C8)CC6)C5)c(=O)c4c3)c2C#N)C1 [Compound 157, (3S)-N-[2-cyano-3-[3-[(3R)-8-[2-[3-(2,4-dioxohexahydropyrimidin-1-yl)-5-fluoro-1-methyl-indazol-6-yl]-2-azaspiro[3.3]heptan-6-yl]-1-oxa-8-azaspiro[4.5]decan-3-yl]-4-oxo-quinazolin-6-yl]oxy-4-fluoro-phenyl]-3-methoxy-pyrrolidine-1-sulfonamide] | 2450 ± 217 ng/g | 12.5 ± 0.745 µg/mL | – |
| CCN(C)S(=O)(=O)Nc1ccc(F)c(Oc2ccc3ncn(C4CC5(CCN(C6CC7(CCN(c8cc9c(cc8F)c(N8CCC(=O)NC8=O)nn9C)CC7)C6)CC5)C4)c(=O)c3c2)c1C#N (centres unmarked) [Compound 198, 6-[2-cyano-3-[[ethyl(methyl)sulfamoyl]amino]-6-fluoro-phenoxy]-3-[7-[7-[3-(2,4-dioxohexahydropyrimidin-1-yl)-5-fluoro-1-methyl-indazol-6-yl]-7-azaspiro[3.5]nonan-2-yl]-7-azaspiro[3.5]nonan-2-yl]-4-oxo-quinazoline] | 3320 ± 479 ng/g | 7.65 ± 0.799 µg/mL | – |
